Laboratory results: publication PMC11266932, “Enhanced absorption of prenylated cinnamic acid derivatives from Brazilian green propolis by turmeric in humans and rats” (Food Science & Nutrition, 2024)
Entries after “also recorded” stand apart in the source; their conditions may differ.

Tests used:
[1] = Clinical trial: plasma concentration and AUC of cinnamic acid derivatives after ingestion of BGP alone or BGP plus herbal extract mixture; assay type: in vivo; settings: humans, BGP and herbal extracts co-administered; for AUC: plasma 0–24 h, after enzymatic deconjugation, mean ± SD, n = 6; for fold increase of AUC versus BGP administered alone: 0–24 h
Description: Six volunteers (three males and three females) completely understood the study protocol and consented to participate in the research. The following exclusion criteria were used for shortlisting participants: past or present medical history (asthma, significant allergies, heart, liver, kidney, and urinary tract disease); prescribed medication; pregnancy; smoking (>20 cigarettes/day); alcohol consumption (>500 mL/day of beer); use of dietary supplements and healthy foods; and participation in other clinical trials. The participants were instructed to refrain from consuming propolis and propolis‐containing foods and beverages during the study period and 1 week prior to the start of the study. After a 12‐h fast, the participants were given a test food comprising the encapsulated BGP powder or a mixture of the BGP powder and herbal extracts in two experimental periods separated by 1 week. […] The collected samples were centrifuged at 1500 g for 3 min at 23 ± 2°C to separate the plasma, which was subsequently preserved at −80°C until further sample preparation.
(§1) Briefly, 50 μL of plasma was treated with a sulfatase/β‐glucuronidase solution (sulfatase 15 units/sample) in 100 mM sodium acetate and 5 mM ascorbate at 37°C for 1 h. Following the incubation, 850 μL of methanol was added to the samples to stop the deconjugation reaction, after which centrifugation was performed at 2000 g for 10 min at 23 ± 2°C. The supernatant was evaporated under nitrogen gas and then reconstituted in a fixed volume of methanol. The samples were filtered through a 0.22 μm PTFE membrane and then analyzed by LC–MS/MS.
(§2) Briefly, 5 μL of the sample was injected into a reversed‐phase column (Acquity UPLC BEH C18, 2.1 × 100 mm, ID. 1.7 μm; Waters, Milford, MA, USA) held at 30°C. The elution was performed using solvent A (0.1% formic acid) and solvent B (acetonitrile) at a flow rate of 0.3 mL/min. The gradient profiles were as follows: 5% B (0–2 min), 5–95% B (2–22 min), 95% B (22–25 min), and 5% B (25–30 min). Tandem mass spectrometry (MS/MS) was conducted using an ion trap mass spectrometer with a heated electrospray ion source (HESI) in both positive and negative ionization modes (scan range m/z 70–1000). […] External standard curves for cinnamic acid derivatives were generated using eight concentrations of authentic standard solutions (1, 5, 10, 50, 100, 250, 500, and 1000 ng/mL).
(§3) Quantification of cinnamic acid derivatives in the plasma was performed using the Trace Finder software version 4.1 (Thermo Scientific). The plasma concentration versus time data for the analytes obtained from each human and rat were entered into a Microsoft Excel spreadsheet. The area under the plasma concentration–time curve (AUC) was calculated using the linear trapezoidal rule, extending to the last sampling point.

[2] = Animal study: plasma concentration and AUC of cinnamic acid derivatives after intragastric BGP with or without each herbal extract; assay type: in vivo, Wistar/ST rats; settings: rats; for AUC: intragastric, 0–24 h, mean ± SD, n = 8; for plasma concentration, BGP alone versus BGP and turmeric (in words): 24 h post-ingestion
Description: Wistar/ST rats (male, 7 weeks old) were purchased from Japan SLC (Shizuoka, Japan). […] The rats were quarantined and acclimatized under the above conditions for 1 week and divided into six groups (eight rats/group) according to their average body weight (240–260 g). Each test sample listed in Table 1 was dissolved in 10% propylene glycol (1 mL per rat) and administered intragastrically to the rats after an overnight fasting period with free access to water. […] The collected samples were centrifuged at 1500 g for 10 min at 4°C to separate the plasma and preserved at −80°C until further sample preparation.
as §1, §2, §3

[3] = BGP co-administered with gotu kola extract
[4] = BGP co-administered with turmeric extract

Row | Structure (SMILES) | AUC ([1]; both sexes, human, oral, read-out: AUC) | fold increase of AUC versus BGP administered alone [1] | AUC ([2]; male, Wistar/ST, rat, plasma, po, BGP 75 mg/kg co-administered with gotu kola extract 250 mg/kg, read-out: AUC) | AUC ([2]; male, Wistar/ST, rat, plasma, po, BGP 75 mg/kg co-administered with turmeric extract 250 mg/kg, read-out: AUC) | plasma concentration, BGP alone versus BGP and turmeric (in words) [2] | change of plasma concentration versus BGP alone (in words) ([2]; BGP + turmeric extract, at 30 min and 3 h) | change of AUC versus BGP alone (in words) [2, 3] | fold increase of AUC versus BGP administered alone [2, 3] | fold increase of AUC versus BGP administered alone [2, 4] | AUC [1] | AUC ([2]; BGP 75 mg/kg administered alone) | AUC ([2]; BGP 75 mg/kg co-administered with turmeric extract 250 mg/kg) | peaks of the plasma concentration–time curve ([2]; BGP + turmeric extract) | fold increase of plasma concentration versus BGP alone ([2]; BGP + turmeric extract, 30 min after administration) | fold increase of plasma concentration versus BGP alone ([2]; BGP + turmeric extract, 6 h after administration) | change of AUC versus BGP alone (in words) ([2]; BGP co-administered with coffee fruit extract) | change of AUC versus BGP alone (in words) ([2]; BGP co-administered with ginkgo leaf extract) | change of AUC versus BGP alone (in words) ([2]; BGP co-administered with soybean extract)
1 | CC(C)=CCc1cc(/C=C/C(=O)O)ccc1O [drupanin] | 446 ± 144 ng·h/mL | 1.5 fold | 629 ± 167 ng·h/mL | 627 ± 148 ng·h/mL | did not differ | significant increases or increasing trends | tended to increase | 1.3 fold | 1.3 fold | – | – | – | – | – | – | – | – | –
2 | CC(C)=CCc1cc(/C=C/C(=O)O)cc(CC=C(C)C)c1O [artepillin C] | – | 1.7 fold | – | – | did not differ | – | did not significantly alter; also recorded: not changed | – | 1.4 fold | 312.9 ± 91.4 ng·h/mL | 1018.0 ± 184.5 ng·h/mL | 1377.2 ± 320.2 ng·h/mL | two distinct peaks at 30 min and 6 h | 1.7 fold | 1.5 fold | did not significantly alter | did not significantly alter | did not significantly alter
